Measured values taken from the NIST ThermoML archive (doi:10.1007/s10765-005-8089-2).

Test: xn = mol fraction of the nth substance listed
Details: Liquid, Falling or rolling sphere viscometry

Cc1ccccc1 [toluene] + CCO
viscosity [mPa·s]
Details	x2 = 0.125	x2 = 0.25	x2 = 0.375	x2 = 0.5	x2 = 0.625	x2 = 0.75	x2 = 0.875
293.15 K, 100 kPa	0.588	0.609	0.652	0.71	0.79	0.899	1.023
293.15 K, 20000 kPa	0.68	0.71	0.754	0.815	0.909	1.014	1.157
293.15 K, 40000 kPa	0.781	0.816	0.866	0.931	1.034	1.152	1.306
293.15 K, 60000 kPa	0.893	0.931	0.986	1.055	1.166	1.297	1.457
293.15 K, 80000 kPa	1.016	1.054	1.114	1.187	1.302	1.444	1.604
293.15 K, 100000 kPa	1.153	1.189	1.251	1.331	1.449	1.6	1.757
313.15 K, 100 kPa	0.462	0.471	0.49	0.525	0.574	0.635	0.717
313.15 K, 20000 kPa	0.538	0.549	0.573	0.611	0.662	0.729	0.825
313.15 K, 40000 kPa	0.619	0.632	0.658	0.699	0.757	0.83	0.932
313.15 K, 60000 kPa	0.705	0.718	0.747	0.792	0.854	0.933	1.039
313.15 K, 80000 kPa	0.796	0.81	0.841	0.889	0.955	1.038	1.147
313.15 K, 100000 kPa	0.893	0.907	0.94	0.991	1.058	1.145	1.255
333.15 K, 100 kPa	0.37	0.373	0.385	0.405	0.431	0.468	0.523
333.15 K, 20000 kPa	0.433	0.437	0.45	0.47	0.501	0.544	0.603
333.15 K, 40000 kPa	0.499	0.503	0.518	0.54	0.573	0.621	0.684
333.15 K, 60000 kPa	0.568	0.571	0.588	0.611	0.647	0.697	0.763
333.15 K, 80000 kPa	0.639	0.643	0.662	0.686	0.724	0.776	0.844
333.15 K, 100000 kPa	0.714	0.718	0.739	0.763	0.804	0.856	0.926
353.15 K, 100 kPa	0.306	–	–	–	–	–	–
353.15 K, 20000 kPa	0.358	0.356	0.361	0.372	0.39	0.415	0.453
353.15 K, 40000 kPa	0.412	0.411	0.417	0.427	0.446	0.476	0.516
353.15 K, 60000 kPa	0.468	0.467	0.474	0.484	0.504	0.536	0.577
353.15 K, 80000 kPa	0.526	0.525	0.532	0.541	0.564	0.597	0.64
353.15 K, 100000 kPa	0.588	0.586	0.593	0.601	0.625	0.66	0.703
